# Test results reported in patent publication US4921850A, “3-propenylcephem derivative” (Eisai Co., Ltd., priority 1986, dated 1990).
# How the values were obtained:
# Assay in all cases: Anti-bacterial activity (MIC), agar dilution
# Format in all cases: cell-based
# Escher. coli NIHJ = settings: Escherichia coli, 18 h, Escher. coli NIHJ; agar dilution, about 10^6 CFU/ml, 18 hours, 37° C.; read-out: MIC
# Outline: (§1)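 Overnight Mueller-Hinton broth cultures were diluted to about 10^6 CFU/ml and spotted onto Mueller-Hinton agar plates carrying twofold serial dilutions of antibiotic. After 18 hours at 37° C, MIC (μg/ml) was determined by agar dilution.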
# Pseud. aeruginosa EP-01 = settings: Pseudomonas aeruginosa, EP01, 18 h, Pseud. aeruginosa EP-01; agar dilution, about 10^6 CFU/ml, 18 hours, 37° C.; read-out: MIC
# Outline: as §1
# Kleb. pneumoniae EK-6 = settings: Klebsiella pneumoniae, EK6, 18 h, Kleb. pneumoniae EK-6; agar dilution, about 10^6 CFU/ml, 18 hours, 37° C.; read-out: MIC
# Outline: as §1
# [1] = system: Morganella morganii EP-14; settings: Morganella morganii, EP14, 18 h, about 10^6 CFU/ml, 37° C., read-out: MIC
# Outline: as §1
# Ser. marcescens ES-75 = settings: Serratia marcescens, ES75, 18 h, Ser. marcescens ES-75; agar dilution, about 10^6 CFU/ml, 18 hours, 37° C.; read-out: MIC
# Outline: as §1
# Staph. aureus 209-P = settings: Staphylococcus aureus, 209P, 18 h, Staph. aureus 209-P; agar dilution, about 10^6 CFU/ml, 18 hours, 37° C.; read-out: MIC
# Outline: as §1
Compound,MIC (Escher. coli NIHJ),MIC (Pseud. aeruginosa EP-01),MIC (Kleb. pneumoniae EK-6),MIC [1],MIC (Ser. marcescens ES-75),MIC (Staph. aureus 209-P)
Nc1nc(/C(=N/OCF)C(=O)N[C@@H]2C(=O)N3C(C(=O)[O-])=C(/C=C/C[N+](N)(CCO)CCO)CS[C@H]23)ns1 [Example 107],0.05 µg/mL,1.56 µg/mL,≤ 0.025 µg/mL,≤ 0.025 µg/mL,0.05 µg/mL,0.2 µg/mL
Nc1nc(/C(=N/OCF)C(=O)N[C@@H]2C(=O)N3C(C(=O)[O-])=C(/C=C/C[n+]4ccc(C(=O)N5CCOCC5)cc4)CS[C@H]23)ns1 [Example 108],0.05 µg/mL,3.13 µg/mL,≤ 0.025 µg/mL,0.05 µg/mL,0.1 µg/mL,0.4 µg/mL
"C[N+](C)(C/C=C/C1=C(C(=O)[O-])N2C(=O)[C@@H](NC(=O)/C(=N\OC(F)F)c3nsc(N)n3)[C@H]2SC1)CC(N)=O [Example 114, 7β-[2-(5-Amino-1,2,4-thiadiazol-3-yl)-(Z)-2-difluoromethoxyiminoacetamido]-3-[(E)-3-(dimethylcarbamoylmethylammonio)-1-propen-1-yl]-3-cephem-4-carboxylate]",0.05 µg/mL,0.8 µg/mL,≤ 0.025 µg/mL,≤ 0.025 µg/mL,0.05 µg/mL,0.2 µg/mL
Nc1nc(/C(=N/OC(F)F)C(=O)N[C@@H]2C(=O)N3C(C(=O)[O-])=C(/C=C/C[N+](CCO)(CCO)CCO)CS[C@H]23)ns1 [Example 117],0.05 µg/mL,1.56 µg/mL,0.05 µg/mL,≤ 0.025 µg/mL,0.2 µg/mL,0.4 µg/mL
"C[N+](C)(C/C=C/C1=C(C(=O)[O-])N2C(=O)[C@@H](NC(=O)/C(=N\OCF)c3nsc(N)n3)[C@H]2SC1)Cc1nnco1 [Example 120, 7β-[2-(5-Amino-1,2,4-thiadiazol-3-yl)-(Z)-2-fluoromethoxyiminoacetamido]-3-[(E)-3-[(1,3,4-oxadiazol-2-yl)methyldimethylammonio]-1-propen-1-yl]-3-cephem-4-carboxylate]",≤ 0.025 µg/mL,0.8 µg/mL,≤ 0.025 µg/mL,≤ 0.025 µg/mL,0.05 µg/mL,0.2 µg/mL
"C[N+]1(C/C=C/C2=C(C(=O)[O-])N3C(=O)[C@@H](NC(=O)/C(=N\OCF)c4nsc(N)n4)[C@H]3SC2)CCN(C=N)CC1.Cl [Example 123, 7β-[2-(5-Amino-1,2,4-thiadiazol-3-yl)-(Z)-2-fluoromethoxyiminoacetamido]-3-[(E)-3-(1-methyl-4-formimidoyl-1-piperazinio)-1-propen-1-yl]-3-cephem-4-carboxylate hydrochloride]",0.05 µg/mL,1.56 µg/mL,0.05 µg/mL,0.05 µg/mL,0.2 µg/mL,0.4 µg/mL
"C[N+]1(C/C=C/C2=C(C(=O)[O-])N3C(=O)[C@@H](NC(=O)/C(=N\OCF)c4nsc(N)n4)[C@H]3SC2)CCNCC1 [Example 124, 7β[2-(5-Amino-1,2,4-thiadiazol-3-yl)-(Z)-2-fluoromethoxyiminoacetamido]-3-[(E)-3-(1-methyl-1-piperazinio)-1-propen-1-yl]-3-cephem-4-carboxylate]",0.05 µg/mL,0.8 µg/mL,≤ 0.025 µg/mL,0.05 µg/mL,0.1 µg/mL,0.2 µg/mL
"Nc1nc(/C(=N/OCF)C(=O)N[C@@H]2C(=O)N3C(C(=O)[O-])=C(/C=C/C[N+]45CCN(CC4)CC5)CS[C@H]23)ns1 [Example 129, 7β-[2-(5-Amino-1,2,4-thiadiazol-3-yl)-(Z)-2-fluoromethoxyiminoacetamido]-3-[(E)-3-(1,4-diazabicyclo[2,2,2]octan-1-io)-1-propen-1-yl]-3-cephem-4-carboxylate]",≤ 0.025 µg/mL,0.8 µg/mL,≤ 0.025 µg/mL,≤ 0.025 µg/mL,0.05 µg/mL,0.2 µg/mL
"Nc1nc(/C(=N/OCF)C(=O)N[C@@H]2C(=O)N3C(C(=O)[O-])=C(/C=C/C[N+](CCO)(CCO)CCO)CS[C@H]23)ns1 [Example 143, 7β-[2-(5-Amino-1,2,4-thiadiazol-3-yl)-(Z)-2 fluoromethoxyiminoacetamido]-3-[(E)-3-[tris(2-hydroxyethyl)ammonio]-1-propen-1-yl]-3-cephem-4-carboxylate]",0.05 µg/mL,0.8 µg/mL,≤ 0.025 µg/mL,≤ 0.025 µg/mL,0.1 µg/mL,0.2 µg/mL
"C[N+](C/C=C/C1=C(C(=O)[O-])N2C(=O)[C@@H](NC(=O)/C(=N\OCF)c3nsc(N)n3)[C@H]2SC1)(CCO)CCO [Example 144, 7β-[2-(5-Amino-1,2,4-thiadiazol-3-yl)-(Z)-2-fluoromethoxyiminoacetamido]-3-[(E)-3-[bis(2-hydroxyethyl)methylammonio]-1-propen-1-yl]-3-cephem-4-carboxylate]",≤ 0.025 µg/mL,0.8 µg/mL,0.05 µg/mL,≤ 0.025 µg/mL,0.1 µg/mL,0.2 µg/mL
N#CCO/N=C(\C(=O)N[C@@H]1C(=O)N2C(C(=O)[O-])=C(/C=C/C[N+](CCO)(CCO)CCO)CS[C@H]12)c1nsc(N)n1 [Example 147],0.4 µg/mL,1.56 µg/mL,0.05 µg/mL,0.05 µg/mL,0.2 µg/mL,0.2 µg/mL
CC(O)C[N+](C)(C)C/C=C/C1=C(C(=O)[O-])N2C(=O)[C@@H](NC(=O)/C(=N\OCC#N)c3nsc(N)n3)[C@H]2SC1 (stereo partly drawn) [Example 149],0.1 µg/mL,1.56 µg/mL,0.05 µg/mL,0.05 µg/mL,0.05 µg/mL,0.2 µg/mL
C[C@@H](O)[C@@H](C(N)=O)[N+](C)(C)C/C=C/C1=C(C(=O)[O-])N2C(=O)[C@@H](NC(=O)/C(=N\OCC#N)c3nsc(N)n3)[C@H]2SC1 [Example 153],0.2 µg/mL,1.56 µg/mL,0.1 µg/mL,0.1 µg/mL,0.1 µg/mL,0.4 µg/mL
C[N+]1(C/C=C/C2=C(C(=O)[O-])N3C(=O)[C@@H](NC(=O)/C(=N\OCC#N)c4nsc(N)n4)[C@H]3SC2)CCN(S(N)(=O)=O)CC1 [Example 156],0.1 µg/mL,0.8 µg/mL,0.1 µg/mL,0.1 µg/mL,0.1 µg/mL,0.4 µg/mL
"N#CCO/N=C(\C(=O)N[C@@H]1C(=O)N2C(C(=O)[O-])=C(/C=C/C[N+]34CCN(CC3)CC4)CS[C@H]12)c1nsc(N)n1 [Example 157, 7β-[2-(5-Amino-1,2,4-thiadiazol-3-yl)-(Z)-2-cyanomethoxyiminoacetoamido]-3-[(E)-3-(1,4-diazabicyclo[2,2,2]octane-1-io)-1-propen-1-yl]-3-cephem-4-carboxylate]",0.1 µg/mL,1.56 µg/mL,0.1 µg/mL,0.1 µg/mL,0.2 µg/mL,0.4 µg/mL

# Other lines, results leading:
MIC (Escher. coli NIHJ),MIC (Pseud. aeruginosa EP-01),MIC (Kleb. pneumoniae EK-6),MIC [1],MIC (Ser. marcescens ES-75),MIC (Staph. aureus 209-P),Compound
≤ 0.025 µg/mL,1.56 µg/mL,≤ 0.025 µg/mL,≤ 0.025 µg/mL,0.05 µg/mL,0.2 µg/mL,C[N+](C)(C/C=C/C1=C(C(=O)[O-])N2C(=O)[C@@H](NC(=O)/C(=N\OCF)c3nsc(N)n3)[C@H]2SC1)Cc1ccn[nH]1 [Example 102]
≤ 0.025 µg/mL,3.13 µg/mL,≤ 0.025 µg/mL,≤ 0.025 µg/mL,≤ 0.025 µg/mL,0.1 µg/mL,Nc1ccc[n+](C/C=C/C2=C(C(=O)[O-])N3C(=O)[C@@H](NC(=O)/C(=N\OCF)c4nsc(N)n4)[C@H]3SC2)c1 [Example 103]
≤ 0.025 µg/mL,3.13 µg/mL,0.05 µg/mL,0.05 µg/mL,0.1 µg/mL,0.4 µg/mL,C[N+](C)(C/C=C/C1=C(C(=O)[O-])N2C(=O)[C@@H](NC(=O)/C(=N\OCF)c3nsc(N)n3)[C@H]2SC1)Cc1cnc[nH]1 [Example 106]
≤ 0.025 µg/mL,3.13 µg/mL,≤ 0.025 µg/mL,≤ 0.025 µg/mL,0.05 µg/mL,0.8 µg/mL,Nc1nc(/C(=N/OC(F)F)C(=O)N[C@@H]2C(=O)N3C(C(=O)[O-])=C(/C=C/C[n+]4ccc(C(=O)O)cc4)CS[C@H]23)ns1 [Example 115]
≤ 0.025 µg/mL,1.56 µg/mL,≤ 0.025 µg/mL,≤ 0.025 µg/mL,≤ 0.025 µg/mL,0.2 µg/mL,Nc1nc(/C(=N/OC(F)F)C(=O)N[C@@H]2C(=O)N3C(C(=O)[O-])=C(/C=C/C[N+]45CCN(CC4)CC5)CS[C@H]23)ns1 [Example 116]
≤ 0.025 µg/mL,0.4 µg/mL,≤ 0.025 µg/mL,≤ 0.025 µg/mL,0.1 µg/mL,0.2 µg/mL,"C[N+](C)(C/C=C/C1=C(C(=O)[O-])N2C(=O)[C@@H](NC(=O)/C(=N\OCF)c3nsc(N)n3)[C@H]2SC1)CC(N)=O [Example 118, 7β-[2-(5-Amino-1,2,4-thiadiazol-3-yl)-(Z)-2-fluoromethoxyiminoacetamido]-3-[(E)-3-(carbamoylmethyldimethylammonio)-1-propen-1-yl]-3-cephem-4-carboxylate]"
≤ 0.025 µg/mL,0.8 µg/mL,≤ 0.025 µg/mL,≤ 0.025 µg/mL,0.05 µg/mL,0.2 µg/mL,"C[N+]1(C/C=C/C2=C(C(=O)[O-])N3C(=O)[C@@H](NC(=O)/C(=N\OCF)c4nsc(N)n4)[C@H]3SC2)CCN(S(N)(=O)=O)CC1 [Example 119, 7β-[2-(5-Amino-1,2,4-thiadiazol-3-yl)-(Z)-2-fluoromethoxyiminoacetamido]-3-[(E)-3-(1-methyl-4-sulfamoyl-1-piperazinio)-1-propen-1-yl]-3-cephem-4-carboxylate]"
